Laboratory results reported in patent US11590236B2, “Compositions and methods for altering macrophage phenotype” (priority 2019, dated 2023).

Tested on: macrophages differentiated from human peripheral blood monocytes
Assay: Cell death / viability of macrophages after drug exposure
Assay type: cell-based
Settings: all concentrations tested
Method: As with Cu(II)-tilmanocept, MT1001.8 was evaluated using macrophages differentiated from human peripheral blood monocytes cultured in supplemented RPMI-1640 medium to which GM-CSF was added. The resulting macrophages were then exposed for 23 hours to MT1001.8 at different concentrations ranging from 0 (controls) to 6.68 μM. Free doxorubicin and the mannosylated dextran construct without the doxorubicin payload were also evaluated as controls. After the 23-hour exposure to the drug construct, the drug containing media were removed and replaced with fresh supplemented RPMI-1640 with GM-CSF and incubated for an additional 72 hours. This final 72-hour incubation in fresh medium was to permit the macrophages to recover from the drug treatment and to manifest any phenotype changes that might have been induced by exposure to the drug construct. All experiments were replicated 5-8 times with peripheral blood monocytes obtained from 5 separate donors. After the last 72-hour incubation, the media were collected and analyzed for their concentrations of various cytokines.

In the case of `COc1cccc2c1C(=O)c1c(O)c3c(c(O)c1C2=O)C[C@@](O)(C(=O)CO)C[C@@H]3O[C@H]1C[C@H](N)[C@H](O)[C@H](C)O1` [free doxorubicin, doxorubicin], the cell death is reported as “high levels of cell death”.
